Laboratory results taken from patent US5084464A, “Conjugated γ-hydroxybutenolide compounds and antiulcer agents containing the same as an effective ingredient” (Kuraray Company Ltd., priority 1989, dated 1992).

Tests used:
[1] = tested on: HCl-ethanol-induced ulcers generated at the mucosa of the stomach; assay: Antiulcer Activity (HCl-Ethanol Ulcer); assay type: in vivo; conditions: oral, one hour before HCl-ethanol, rats
Experimental: Antiulcer Activity (HCl-Ethanol Ulcer)
1.5 ml of a 60% aqueous ethanol solution containing 150 mM hydrochloric acid was orally administered to rats. One hour thereafter the rats were sacrificed and the length (mm) of HCl-ethanol-induced ulcers generated at the mucosa of the stomach were measured. Sum of the length of ulcer per animal is defined as ulcer coefficient. Specimens each was orally administered one hour before the HCl-ethanol administration. Inhibition rate was calculated as the ratio of the difference of ulcer coefficients of the control group and specimen-administered group to the ulcer coefficient of the control group.

[2] = Acute Toxicity (oral administration); conditions: mouse, in vivo
Experimental: Acute toxicity tests through oral administration were carried out using male ICR-strain mice (5 weeks old).

[3] = Rattus norvegicus, 1 h, read-out: Inhibition Rate

SMILES	inhibition in vivo at 2.5 mg/kg [1, 3]	inhibition in vivo at 5 mg/kg [1, 3]	other results
CN(C)c1ccc(/C=C/C2=CC(=O)OC2O)cc1 (stereo not shown) [(2)]	37.5%		
O=C1C=C(/C=C/c2cccc(C(=O)c3ccccc3)c2)C(O)O1 (stereo not shown) [(3)]		69.7%	
O=C1C=C(/C=C/c2cccc(Cc3cccnc3)c2)C(O)O1 (stereo not shown) [(4)]		42%	
O=C1C=C(/C=C/c2cccc3ccccc23)C(O)O1 (stereo not shown) [(5)]	94%		
COc1ccc2cc(/C=C/C3=CC(=O)OC3O)ccc2c1 (stereo not shown) [(6)]		61.3%	
O=C1C=C(/C=C/c2ccco2)C(O)O1 (stereo not shown) [(7)]	96%		
O=C1C=C(/C=C/c2cccs2)C(O)O1 (stereo not shown) [(8)]	95.5%		
O=C1C=C(/C=C/C=C/c2ccccc2)C(O)O1 (stereo not shown) [(9)]		98.6%	
O=C1C=C(/C=C/C=C/C=C/c2ccccc2)C(O)O1 (stereo not shown) [(10)]		61.8%	
CC(C)=C/C=C/C1=CC(=O)OC1O (stereo not shown) [Compound (1), 5-hydroxy-4-[4-methyl-1,3-pentadienyl]-2(5H)-furanone]		90.6%	LD50 [2]: ≥ 2000 mg/kg
CC(=O)c1ccc2c(c1)C(=O)C1(CC1)O2 [Spizofurone, reference compound]			Inhibition Rate ([1]; 100 mg/kg): 86.6%
CC(=O)CCC=C(C)CCC=C(C)CCC=C(C)CCC=C(C)C [Teprenone, reference compound]			inhibition in vivo at 25 mg/kg ([1]; Rattus norvegicus, 1 h, 25 mg/kg, read-out: Inhibition Rate): 48.9%
